Ki data for 29 compounds are collected here from patent US9181239B2, “Pyridopyrimidinone inhibitors of kinases” (AbbVie Inc., priority 2011, dated 2015).

In this assay the target is T1, Wee1 kinase (Homo sapiens, UniProt P30291).
T1 construct: purchased Carnabio 05-177
T1 sequence (P30291 whole entry): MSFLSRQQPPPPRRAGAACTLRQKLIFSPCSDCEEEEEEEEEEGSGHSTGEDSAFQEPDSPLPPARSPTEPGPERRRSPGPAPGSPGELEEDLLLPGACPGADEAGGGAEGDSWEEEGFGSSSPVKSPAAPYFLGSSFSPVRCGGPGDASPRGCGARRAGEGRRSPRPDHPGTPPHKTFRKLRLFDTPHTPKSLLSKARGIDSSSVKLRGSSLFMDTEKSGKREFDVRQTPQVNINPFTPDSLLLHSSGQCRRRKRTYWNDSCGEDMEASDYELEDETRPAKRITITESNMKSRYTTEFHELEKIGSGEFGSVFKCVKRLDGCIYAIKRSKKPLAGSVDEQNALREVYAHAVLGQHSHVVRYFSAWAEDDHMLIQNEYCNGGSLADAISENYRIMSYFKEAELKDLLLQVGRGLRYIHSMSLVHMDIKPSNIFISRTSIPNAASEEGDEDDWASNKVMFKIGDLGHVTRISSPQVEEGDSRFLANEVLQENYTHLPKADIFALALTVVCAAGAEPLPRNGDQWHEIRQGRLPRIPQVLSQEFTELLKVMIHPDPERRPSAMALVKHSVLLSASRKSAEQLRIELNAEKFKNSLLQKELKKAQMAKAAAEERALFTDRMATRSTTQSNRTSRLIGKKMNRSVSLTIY
Nature of the assay: Wee1 time-resolved fluorescence equilibrium binding assay (probe displacement). As to conditions: GST-tagged-Wee1 kinase 2 nM, fluorescent probe 300 nM, 1 hour incubation; read-out: Wee-1 binding (Ki nM). The protocol: Wee1 kinase was assayed using a time-resolved fluorescence equilibrium binding assay monitoring displacement of a rapidly reversible Oregon Green-labeled ATP-competitive kinase probe (N-(2-(2-(2-(4-(4-(5-chloro-4-(2-(1-hydroxycyclobutyl)thiazol-5-yl)-1H-pyrrolo[2,3-b]pyridin-2-yl)phenyl)piperazin-1-yl)ethoxy)ethoxy)ethyl)-2′,7′-difluoro-3′,6′-dihydroxy-3-oxo-3H-spiro[isobenzofuran-1,9′-xanthene]-5-carboxamide) by competitive Wee1 inhibitors.
For `Cn1cc(-c2c(Cl)cccc2Cl)c(=O)c2cnc(Nc3ccc4c(c3)CNCC4(C)C)nc21` [Example 47, 6-(2,6-dichlorophenyl)-2-[(4,4-dimethyl-1,2,3,4-tetrahydroisoquinolin-7-yl)amino]-8-methylpyrido[2,3-d]pyrimidin-5(8H)-one], the Ki turned out to be 0.6 nM.

Regarding `CN1CCN(c2ccc(Nc3ncc4c(=O)c(-c5c(Cl)cccc5Cl)cn(-c5ccc(F)cc5)c4n3)cc2)CC1` [Example 9, 6-(2,6-dichlorophenyl)-8-(4-fluorophenyl)-2-{[4-(4-methylpiperazin-1-yl)phenyl]amino}pyrido[2,3-d]pyrimidin-5(8H)-one], the Ki is less than 1 nM.

Regarding `CN1CCC(Nc2ccc(Nc3ncc4c(=O)c(-c5c(F)cccc5Cl)cn(C)c4n3)cc2)CC1` [Example 69, 6-(2-chloro-6-fluorophenyl)-8-methyl-2-({4-[(1-methylpiperidin-4-yl)amino]phenyl}amino)pyrido[2,3-d]pyrimidin-5(8H)-one], the inhibitory constant (Ki) was 3 nM.

Consider `CN(C)C1Cc2ccc(Nc3ncc4c(=O)c(-c5c(Cl)cccc5Cl)c[nH]c4n3)cc2C1` (centres unmarked) [Example 41, 6-(2,6-dichlorophenyl)-2-{[2-(dimethylamino)-2,3-dihydro-1H-inden-5-yl]amino}pyrido[2,3-d]pyrimidin-5(8H)-one], for which the Ki came out at 0.4 nM.

For `CN1CCN(c2ncc(Nc3ncc4c(=O)c(-c5c(Cl)cccc5Cl)cn(C)c4n3)cn2)CC1` [Example 59, 6-(2,6-dichlorophenyl)-8-methyl-2-{[2-(4-methylpiperazin-1-yl)pyrimidin-5-yl]amino}pyrido[2,3-d]pyrimidin-5(8H)-one], the Ki turned out to be 18 nM.

Turning to `CN1CCN(C2Cc3ccc(Nc4ncc5c(=O)c(-c6c(Cl)cccc6Cl)cn(C)c5n4)cc3C2)CC1` (centres unmarked) [Example 57, 6-(2,6-dichlorophenyl)-8-methyl-2-{[2-(4-methylpiperazin-1-yl)-2,3-dihydro-1H-inden-5-yl]amino}pyrido[2,3-d]pyrimidin-5(8H)-one], the Ki turned out to be 0.9 nM.

Consider `CN1Cc2cc(Nc3ncc4c(=O)c(-c5c(F)cccc5Cl)cn(C)c4n3)ccc2C2(CC2)C1` [Example 34, 6-(2-chloro-6-fluorophenyl)-8-methyl-2-[(2′-methyl-2′,3′-dihydro-1′H-spiro[cyclopropane-1,4′-isoquinolin]-7′-yl)amino]pyrido[2,3-d]pyrimidin-5(8H)-one], for which the Ki worked out at 0.4 nM.

On to `COc1ccc(Cn2cc(-c3c(F)cccc3Cl)c(=O)c3cnc(Nc4ccc(N5CCN(C)CC5)cc4)nc32)cc1` [Example 35, 6-(2-chloro-6-fluorophenyl)-8-(4-methoxybenzyl)-2-{[4-(4-methylpiperazin-1-yl)phenyl]amino}pyrido[2,3-d]pyrimidin-5(8H)-one], for which the Ki was determined as 66 nM.

In the case of `CCn1cc(-c2c(Cl)cccc2Cl)c(=O)c2cnc(Nc3ccc4c(c3)CN(C)CC43CC3)nc21` [Example 32, 6-(2,6-dichlorophenyl)-8-ethyl-2-[(2′-methyl-2′,3′-dihydro-1′H-spiro[cyclopropane-1,4′-isoquinolin]-7′-yl)amino]pyrido[2,3-d]pyrimidin-5(8H)-one], the Ki amounted to 0.3 nM.

Turning to `CN1CCN(c2ccc(Nc3ncc4c(=O)c(-c5ccccc5Cl)cn(-c5ccccc5)c4n3)cc2)CC1` [Example 2, 6-(2-chlorophenyl)-2-{[4-(4-methylpiperazin-1-yl)phenyl]amino}-8-phenylpyrido[2,3-d]pyrimidin-5(8H)-one], the Ki amounted to 2.4 nM.

For the compound `Cn1cc(-c2c(Cl)cccc2Cl)c(=O)c2cnc(Nc3ccc4c(c3)CNC4)nc21` [Example 49, 6-(2,6-dichlorophenyl)-2-(2,3-dihydro-1H-isoindol-5-ylamino)-8-methylpyrido[2,3-d]pyrimidin-5(8H)-one], the Ki was found to be 0.8 nM.

In the case of `CN1Cc2cc(Nc3ncc4c(=O)c(-c5c(Cl)cccc5Cl)c[nH]c4n3)ccc2C2(CC2)C1` [Example 30, 6-(2,6-dichlorophenyl)-2-[(2′-methyl-2′,3′-dihydro-1′H-spiro[cyclopropane-1,4′-isoquinolin]-7′-yl)amino]pyrido[2,3-d]pyrimidin-5(8H)-one], the Ki was 0.2 nM.

As to `CN1CCC(Oc2ccc(Nc3ncc4c(=O)c(-c5c(Cl)cccc5Cl)cn(C)c4n3)cc2)CC1` [Example 68, 6-(2,6-dichlorophenyl)-8-methyl-2-({4-[(1-methylpiperidin-4-yl)oxy]phenyl}amino)pyrido[2,3-d]pyrimidin-5(8H)-one], the Ki is 0.4 nM.

Regarding `CN1CCN(c2ccc(Nc3ncc4c(=O)c(-c5ccccc5Cl)c(-c5ccccc5)[nH]c4n3)cc2)CC1` [Example 3, 6-(2-chlorophenyl)-2-{[4-(4-methylpiperazin-1-yl)phenyl]amino}-7-phenylpyrido[2,3-d]pyrimidin-5(8H)-one], the Ki is 37 nM.

With `Cn1cc(-c2c(Cl)cccc2Cl)c(=O)c2cnc(Nc3ccc(N[C@H]4CCNC4)cc3)nc21` [Example 64, 6-(2,6-dichlorophenyl)-8-methyl-2-({4-[(3S)-pyrrolidin-3-ylamino]phenyl}amino)pyrido[2,3-d]pyrimidin-5(8H)-one], the inhibitory constant (Ki) is 0.4 nM.

With `COc1ccc(Cn2cc(-c3c(Cl)cccc3Cl)c(=O)c3cnc(Nc4ccc5c(c4)CN(C)CC54CC4)nc32)cc1` [Example 29, 6-(2,6-dichlorophenyl)-8-(4-methoxybenzyl)-2-[(2′-methyl-2′,3′-dihydro-1′H-spiro[cyclopropane-1,4′-isoquinolin]-7′-yl)amino]pyrido[2,3-d]pyrimidin-5(8H)-one], the Ki stood at 6.4 nM.

As for `CN1CCN(c2ccc(Nc3ncc4c(=O)c(-c5c(Cl)cccc5Cl)cn(C5COC5)c4n3)cc2)CC1` [Example 27, 6-(2,6-dichlorophenyl)-2-{[4-(4-methylpiperazin-1-yl)phenyl]amino}-8-(oxetan-3-yl)pyrido[2,3-d]pyrimidin-5(8H)-one], the Ki was 1.3 nM.

For `Cn1cc(-c2c(F)cccc2Cl)c(=O)c2cnc(Nc3ccc(NC4CCNCC4)cc3)nc21` [Example 73, 6-(2-chloro-6-fluorophenyl)-8-methyl-2-{[4-(piperidin-4-ylamino)phenyl]amino}pyrido[2,3-d]pyrimidin-5(8H)-one], the Ki was 2.8 nM.

`Cn1cc(-c2c(F)cccc2Cl)c(=O)c2cnc(Nc3ccc4c(c3)CNCC4)nc21` [Example 74, 6-(2-chloro-6-fluorophenyl)-8-methyl-2-(1,2,3,4-tetrahydroisoquinolin-7-ylamino)pyrido[2,3-d]pyrimidin-5(8H)-one]: the Ki amounted to 1.2 nM.

Turning to `CN(C)CCN1CCN(c2ccc(Nc3ncc4c(=O)c(-c5c(Cl)cccc5Cl)cn(C)c4n3)cc2)CC1` [Example 79, 6-(2,6-dichlorophenyl)-2-[(4-{4-[2-(dimethylamino)ethyl]piperazin-1-yl}phenyl)amino]-8-methylpyrido[2,3-d]pyrimidin-5(8H)-one], the Ki turned out to be 0.8 nM.

On to `CN1CCC(Nc2ccc(Nc3ncc4c(=O)c(-c5c(Cl)cccc5Cl)cn(C)c4n3)cc2)C1` (centres unmarked) [Example 67, 6-(2,6-dichlorophenyl)-8-methyl-2-({4-[(1-methylpyrrolidin-3-yl)amino]phenyl}amino)pyrido[2,3-d]pyrimidin-5(8H)-one], for which the Ki came to 0.5 nM.

In the case of `CN(C)C1CCN(c2ccc(Nc3ncc4c(=O)c(-c5c(Cl)cccc5Cl)cn(C)c4n3)cc2)CC1` [Example 44, 6-(2,6-dichlorophenyl)-2-({4-[4-(dimethylamino)piperidin-1-yl]phenyl}amino)-8-methylpyrido[2,3-d]pyrimidin-5(8H)-one], the Ki is 0.5 nM.

On to `Cn1cc(-c2c(Cl)cccc2Cl)c(=O)c2cnc(Nc3ccc(N[C@H]4CC[C@H](N(C)C)CC4)cc3)nc21` [Example 76, 6-(2,6-dichlorophenyl)-2-[(4-{[trans-4-(dimethylamino)cyclohexyl]amino}phenyl)amino]-8-methylpyrido[2,3-d]pyrimidin-5(8H)-one], for which the Ki turned out to be 0.7 nM.

For the compound `CN(C)C1CCN(c2ncc(Nc3ncc4c(=O)c(-c5c(Cl)cccc5Cl)cn(C)c4n3)cn2)CC1` [Example 62, 6-(2,6-dichlorophenyl)-2-({2-[4-(dimethylamino)piperidin-1-yl]pyrimidin-5-yl}amino)-8-methylpyrido[2,3-d]pyrimidin-5(8H)-one], the inhibition constant (Ki) is 3 nM.

Consider `Cn1cc(-c2c(Cl)cccc2Cl)c(=O)c2cnc(Nc3ccc4c(c3)CCNC4)nc21` [Example 46, 6-(2,6-dichlorophenyl)-8-methyl-2-(1,2,3,4-tetrahydroisoquinolin-6-ylamino)pyrido[2,3-d]pyrimidin-5(8H)-one], for which the inhibitory constant (Ki) came out at 1.1 nM.

With `CN1Cc2cc(Nc3ncc4c(=O)c(-c5c(Cl)cccc5Cl)c[nH]c4n3)ccc2C(C)(C)C1` [Example 42, 6-(2,6-dichlorophenyl)-2-[(2,4,4-trimethyl-1,2,3,4-tetrahydroisoquinolin-7-yl)amino]pyrido[2,3-d]pyrimidin-5(8H)-one], the Ki came to 0.2 nM.

In the case of `CN1CCN(c2ccc(Nc3ncc4c(=O)c(-c5c(Cl)cccc5Cl)cn(CC(C)(C)O)c4n3)cc2)CC1` [Example 16, 6-(2,6-dichlorophenyl)-8-(2-hydroxy-2-methylpropyl)-2-{[4-(4-methylpiperazin-1-yl)phenyl]amino}pyrido[2,3-d]pyrimidin-5(8H)-one], the Ki came to 20 nM.

For the compound `CN1CCC(c2ccc(Nc3ncc4c(=O)c(-c5c(Cl)cccc5Cl)cn(C)c4n3)cc2)CC1` [Example 50, 6-(2,6-dichlorophenyl)-8-methyl-2-{[4-(1-methylpiperidin-4-yl)phenyl]amino}pyrido[2,3-d]pyrimidin-5(8H)-one], the Ki was determined as 0.9 nM.

Turning to `Cn1cc(-c2c(Cl)cccc2Cl)c(=O)c2cnc(Nc3ccc(N4CCOCC4)cc3)nc21` [Example 48, 6-(2,6-dichlorophenyl)-8-methyl-2-{[4-(morpholin-4-yl)phenyl]amino}pyrido[2,3-d]pyrimidin-5(8H)-one], the Ki was determined as 1.7 nM.
